# Assay results as given in patent publication US11065251B2, “PAK1 inhibitors and uses thereof” (Albert Einstein College of Medicine, priority 2016, dated 2021).
# Like-named read-outs stand apart in the source and are kept apart here.
# Assays:
# PAK1 = PAK1 (Homo sapiens, UniProt Q13153); assay: PAK1 IC50 determination, Z'-LYTE kinase assay; type: biochemical; conditions: [ATP]=10×Km; [PAK1]=1 ng; read-out: IC50 against PAK1
# Experimental: Protocol for determining IC50 Values for test compounds at [ATP]=10×Km; [PAK1]=1 ng
# Add 2 ml 5× Kinase Buffer to 8 ml water to prepare […] of Kinase Buffer A.
# • Thaw the concentrated stock of test compound at room temperature. • 2.1. Add 10 μl of 100% DMSO to row A, columns 2-11 (wells A2-A11) in a 96-well assay plate (non-binding surface). To well A1, add 15 μl of the concentrated stock of test compound. This will be the highest concentration of test compound in a 10-point titration curve. Use a concentration that is 100× the final desired 1× concentration per 10 μl kinase reaction. For example, if the final 1× concentration of 100 μM is desired for the highest concentration of test compound in the 10 point titration curve, add 15 μl of 10 mM test compound to well A1. • 2.2. Titrate the 100× test compound three-fold across the assay plate from well A1 to well A10. To perform this threefold titration, transfer 5 μl of the 100× test compound from well A1 to the 10 μl of 100% DMSO in well A2. Repeat for wells A2-A10. Discard the final 5 μl from well A10 so that all wells contain 10 μl. […] This completes the 10-point three-fold titration of test compound at 100× concentration. • 2.3. Transfer a 2 μl aliquot of the 100× test compound titration series from each well in row A of the 96-well assay plate (wells A1-A12) to row B (wells B1-B12). Add 48 μl of complete kinase reaction buffer to each well in row B to dilute the 100× three-fold titration series of test compound to 4× (the DMSO will also be diluted, to 4%). • 2.4. Transfer 2.5 μl of the 4× concentrated three-fold titration series of test compound from row B of the 96-well assay plates to quadruplicate wells of a 384-well assay plate. Each well in columns 21-24 should contain 2.5 μl of 4% DMSO (no compound) in complete kinase reaction buffer. This 2.5 μl addition of 4× test compound in 4% DMSO produces a 1× concentration of test compound in 1% DMSO for a 10 μl kinase reaction. • 2.5. Dispense 2.5 μl of complete kinase reaction buffer to each well in columns 23-24 of the 384-well assay plate.
# • 1. Prepare 500 μl of 4 μM Z′-LYTE® Phospho-peptide by adding 2 μl of 1 mM Z′-LYTE® Phospho-peptide to 498 μl of complete kinase reaction buffer. • 2. Dispense 5 μl of the 4 μM Z′-LYTE® Phospho-peptide (2×) to each well in column 24 of the 384-well assay plate. • 3. Prepare 1000 μl of 4 μM Z′-LYTE® Peptide Substrate (2×)/2× kinase solution in complete kinase reaction buffer. If necessary, prepare an intermediate dilution of the kinase in complete kinase reaction buffer before preparing the Z′-LYTE™ Peptide Substrate (2×)/2× kinase solution. Use the appropriate 2× kinase concentration in the assay to phosphorylate 20-50% of the 0% inhibition controls at the ATP concentration desired. • 4. […]
# [1] = Microsomal stability, human (HLM); type: in vitro ADME; conditions: for half-life: read-out: t½
# Solubility assessment = type: physicochemical; conditions: kinetic from dmso stock
# [2] = Pharmacokinetic (PK) assessment in rats; type: in vivo
# Caco-2 permeability = type: in vitro ADME; conditions: human
# [3] = Microsomal stability, rat (RLM); type: in vitro ADME; conditions: for half-life: read-out: t½
# [4] = system: other PAK family members (PAK2, PAK3, PAK4, PAK6, PAK7); assay: Inhibitory activity against other PAK family members; type: biochemical; conditions: in words
# Experimental: A cell-based small molecule screening with 50,024 compounds was performed based on AML cell lines that grow in a PAK1-dependent manner, which has been previously described (Pandolfi et al., 2015). This was followed by single point PAK1 enzymatic activity screening against 360 compounds. Forty-six identified compounds that scored positive in this assay were subjected to enzymatic activity assays against other PAK family kinases including PAK2, PAK3, PAK4, PAK6, and PAK7. […] Those compounds were studied in further detail and key biochemical, pharmacokinetic, and structure-activity characteristics were determined.
# [5] = Microsomal stability, mouse (MLM); type: in vitro ADME
# larger kinase panel = assay: Selectivity against a larger kinase panel; type: binding; conditions: in words
# [6] = liver microsomes, human microsomes
# [7] = liver microsomes, rat microsomes
# [8] = rat, plasma, PO, 10 mg/kg, mean
# Sequence of PAK1 (Q13153 whole entry): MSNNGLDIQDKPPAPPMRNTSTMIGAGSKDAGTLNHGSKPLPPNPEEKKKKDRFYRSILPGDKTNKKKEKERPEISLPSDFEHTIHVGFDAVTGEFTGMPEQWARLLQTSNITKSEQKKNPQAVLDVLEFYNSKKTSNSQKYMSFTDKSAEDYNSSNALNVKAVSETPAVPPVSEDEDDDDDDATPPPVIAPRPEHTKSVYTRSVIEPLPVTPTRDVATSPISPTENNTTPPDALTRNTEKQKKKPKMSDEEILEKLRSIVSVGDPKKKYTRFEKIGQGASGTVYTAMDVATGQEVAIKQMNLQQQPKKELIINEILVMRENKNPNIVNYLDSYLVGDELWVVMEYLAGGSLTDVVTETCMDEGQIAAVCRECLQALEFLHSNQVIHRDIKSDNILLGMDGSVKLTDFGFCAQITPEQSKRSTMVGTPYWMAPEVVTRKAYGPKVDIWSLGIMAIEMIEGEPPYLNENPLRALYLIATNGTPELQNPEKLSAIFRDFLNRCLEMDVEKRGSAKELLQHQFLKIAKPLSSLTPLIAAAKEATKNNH
smiles,measurement,setting,value
CCn1c(=O)c(-c2ccc(-c3nc(C)c[nH]3)cc2Cl)cc2cnc(Nc3ccc(N4CCN(C)CC4)cc3)nc21 [Compound 42-0125_1],IC50,PAK1,< 30 nM
same,microsomal CLint,"[1]; human, human liver microsomes, HLM",12 µL/min/mg
same,half-life,[1]; [6],1.98 h
same,solubility,"Solubility assessment; aqueous buffer, UB pH 2, 1% DMSO, read-out: Solubility in UB pH 2, 1% DMSO",59 µM
same,solubility,"Solubility assessment; aqueous buffer, UB pH 7, 1% DMSO, read-out: Solubility in UB pH 7, 1% DMSO",25 µM
same,solubility,"Solubility assessment; simulated gastric fluid, SGF, 1% DMSO, read-out: Solubility in SGF, 1% DMSO",58 µM
same,Cl_obs,"[2]; IV, 3 mg/kg",4.97 mL/min/kg
same,Vss_obs,"[2]; IV, 3 mg/kg",1.705 L/kg
same,Biovailability,[2]; PO 30 mg/kg versus IV 3 mg/kg,13.9%
same,Cmax,"[2]; rat, plasma, IV, 3 mg/kg",3620 ng/mL
same,Tmax,"[2]; rat, plasma, IV, 3 mg/kg",0.17 h
same,MRT last,"[2]; rat, plasma, IV, 3 mg/kg, read-out: MRT MRT last",5 h
same,half-life,"[2]; rat, plasma, IV, 3 mg/kg, read-out: T ½ HL_Lambda_z (converted)",5 h
same,Cmax,"[2]; rat, plasma, PO, 30 mg/kg",943 ng/mL
same,Tmax,"[2]; rat, plasma, PO, 30 mg/kg",8 h
same,MRT last,"[2]; rat, plasma, PO, 30 mg/kg, read-out: MRT MRT last",10 h
same,half-life,"[2]; rat, plasma, PO, 30 mg/kg, read-out: T ½ HL_Lambda_z (converted)",6.19 h
same,AUC(0-t),"[2]; rat, plasma, iv, 3 mg/kg, IV, 3 mg/kg, read-out: AUC0→t AUC last",9750 ng·h/mL
same,AUC(0-inf),"[2]; rat, plasma, iv, 3 mg/kg, IV, 3 mg/kg, read-out: AUC0→∞ AUC INF_obs",10100 ng·h/mL
same,AUC(0-t),"[2]; rat, plasma, po, 30 mg/kg, PO, 30 mg/kg, read-out: AUC0→t AUC last",12600 ng·h/mL
same,AUC(0-inf),"[2]; rat, plasma, po, 30 mg/kg, PO, 30 mg/kg, read-out: AUC0→∞ AUC INF_obs",14000 ng·h/mL
same,efflux ratio,"Caco-2 permeability; Caco-2, read-out: Assym index",1
same,Papp A→B,"Caco-2 permeability; Caco-2, A-B",3.9 ×10⁻⁶ cm/s
same,Papp B→A,"Caco-2 permeability; Caco-2, B-A",3.8 ×10⁻⁶ cm/s
same,half-life,[3]; [7],2.45 h
same,microsomal CLint,"[3]; rat, rat liver microsomes, RLM",9 µL/min/mg
"COc1cccc(-c2oncc2CN2CCN(C(C)=O)CC2)c1 [Compound T813-0242, 1-(4-((5-(3-Methoxyphenyl)isoxazol-4-yl)methyl)piperazin-1-yl)ethanone]",inhibitory activity against any of the other PAK family members,[4],no significant inhibitory activity
same,IC50,PAK1,900 nM
same,ER,[1]; human microsomes,0.66
same,CLh,"[1]; human microsomes, in mL/min/kg (unit assumed)",14.31
same,microsomal CLint,[1]; [6],38.8 µL/min/mg
same,half-life,[1]; [6],1.19 h
same,microsomal CLint,[5]; liver microsomes,44.4 µL/min/mg
same,half-life,"[5]; liver microsomes, read-out: t½",1.04 h
same,ER,[5]; mouse microsomes,0.66
same,CLh,"[5]; mouse microsomes, in mL/min/kg (unit assumed)",59.41
same,K el,"[2]; IV, 2 mg/kg, mean",3.03 h⁻¹
same,"Fabs, % (from AUCINF)",[2]; PO 10 mg/kg versus IV 2 mg/kg,3.8%
same,"Fabs, % (from AUClast)",[2]; PO 10 mg/kg versus IV 2 mg/kg,3.8%
same,K el,"[2]; PO, 10 mg/kg, mean",1.05 h⁻¹
same,C0,"[2]; rat, plasma, IV, 2 mg/kg, mean",3150 ng/mL
same,Cmax,"[2]; rat, plasma, IV, 2 mg/kg, mean",2210 ng/mL
same,MRT inf,"[2]; rat, plasma, IV, 2 mg/kg, mean",0.3 h
same,Tmax,"[2]; rat, plasma, IV, 2 mg/kg, mean",0.08 h
same,clearance,"[2]; rat, plasma, IV, 2 mg/kg, mean",36.7 mL/min/kg
same,MRT last,"[2]; rat, plasma, IV, 2 mg/kg, mean, read-out: MRTlast",0.29 h
same,half-life,"[2]; rat, plasma, IV, 2 mg/kg, mean, read-out: T ½ (converted)",0.23 h
same,CL/F,[2]; [8],974 mL/min/kg
same,Cmax,[2]; [8],202 ng/mL
same,MRT inf,[2]; [8],0.84 h
same,Tmax,[2]; [8],0.33 h
same,MRT last,"[2]; rat, plasma, PO, 10 mg/kg, mean, read-out: MRTlast",0.75 h
same,half-life,"[2]; rat, plasma, PO, 10 mg/kg, mean, read-out: T ½ (converted)",0.69 h
same,Vd/F,"[2]; rat, plasma, PO, 10 mg/kg, mean, read-out: Vz/F",56.2 L/kg
same,AUC(0-inf),"[2]; rat, plasma, iv, 2 mg/kg, IV, 2 mg/kg, mean, read-out: AUCINF",911 ng·h/mL
same,AUC(0-t),"[2]; rat, plasma, iv, 2 mg/kg, IV, 2 mg/kg, mean, read-out: AUClast",909 ng·h/mL
same,Vd,"[2]; rat, plasma, iv, 2 mg/kg, IV, 2 mg/kg, mean, read-out: Vss",0.65 L/kg
same,Vd,"[2]; rat, plasma, iv, 2 mg/kg, IV, 2 mg/kg, mean, read-out: Vz",0.73 L/kg
same,AUC(0-inf),"[2]; rat, plasma, iv, 2 mg/kg, IV, dose 2 mg/kg, summary section, no unit printed there, read-out: AUCINF, IV plasma",911 ng·h/mL
same,AUC(0-t),"[2]; rat, plasma, iv, 2 mg/kg, IV, dose 2 mg/kg, summary section, no unit printed there, read-out: AUClast, IV plasma",909 ng·h/mL
same,AUC(0-inf),"[2]; rat, plasma, po, 10 mg/kg, PO, 10 mg/kg, mean, read-out: AUCINF",175 ng·h/mL
same,AUC(0-t),"[2]; rat, plasma, po, 10 mg/kg, PO, 10 mg/kg, mean, read-out: AUClast",171 ng·h/mL
same,AUC(0-inf),"[2]; rat, plasma, po, 10 mg/kg, PO, dose 10 mg/kg, summary section, no unit printed there, read-out: AUCINF, PO plasma",175 ng·h/mL
same,AUC(0-t),"[2]; rat, plasma, po, 10 mg/kg, PO, dose 10 mg/kg, summary section, no unit printed there, read-out: AUClast, PO plasma",171 ng·h/mL
same,inhibition against a larger kinase panel,larger kinase panel,no significant inhibition
same,microsomal CLint,[3]; [7],34 µL/min/mg
same,half-life,[3]; [7],1.36 h
same,ER,[3]; rat microsomes,0.53
same,CLh,"[3]; rat microsomes, in mL/min/kg (unit assumed)",28.97
